Data reported in ChEMBL document CHEMBL1147838, “Design, synthesis, and evaluation of phenanthridine derivatives targeting the telomerase RNA/DNA heteroduplex” (Bioorg Med Chem Lett, 2007).

assay: Inhibition of telomerase by fluorescence based assay; design: species or system Homo sapiens

For `CC[n+]1c(-c2ccccc2)c2cc(NC(=O)CCCC(N)=O)ccc2c2ccc(N)cc21`, which IC50 is on record?
Its IC50 is 68.2 µM.

With `CC[n+]1c(-c2ccccc2)c2cc(NC(=O)CCCC(=O)O)ccc2c2ccc(NC(=O)CCCC(=O)O)cc21` as the molecule, how does the IC50 read?
Its IC50 is 63.1 µM.

Which IC50 does the source give for `NC(=O)CCCCC[n+]1c(-c2ccccc2)c2cc(N)ccc2c2ccc(N)cc21` here?
The IC50 was 30.3 µM.

With `CC[n+]1c(-c2ccccc2)c2cc(NC(=O)CCCC(N)=O)ccc2c2ccc(NC(=O)CCCC(N)=O)cc21` as the molecule, how does the IC50 read?
The IC50 was > 80 µM.

With `Nc1ccc2c(c1)c(-c1ccccc1)[n+](Cc1ccc(C(=O)O)cc1)c1cc(N)ccc21` as the molecule, how does the IC50 read?
The IC50 was 27.3 µM.

Which IC50 does the source give for `NC(=O)c1ccc(C[n+]2c(-c3ccccc3)c3cc(N)ccc3c3ccc(N)cc32)cc1` here?
Its IC50 is 2.9 µM.

Which IC50 does the source give for `CC[n+]1c(-c2ccccc2)c2cc(N)ccc2c2ccc(NC(=O)CCCC(=O)O)cc21` here?
Its IC50 is > 80 µM.

For `Nc1ccc2c(c1)c(-c1ccccc1)[n+](CCCCCC(=O)O)c1cc(N)ccc21`, which IC50 is on record?
Its IC50 is 23.3 µM.

With `CC[n+]1c(-c2ccccc2)c2cc(N)ccc2c2ccc(NC(=O)CCCC(N)=O)cc21` as the molecule, how does the IC50 read?
Its IC50 is 5.6 µM.

Which IC50 does the source give for `CC[n+]1c(-c2ccccc2)c2cc(NC(=O)CCCC(=O)O)ccc2c2ccc(N)cc21` here?
Its IC50 is > 80 µM.
